Results published in US5349127A, “Expression of herbicide metabolizing cytochromes P450” (priority 1992, dated 1994).

What was measured:
S. lividans C37 = assay: Metabolism of 10001 in growing culture, HPLC of supernatant (Example 4); type: in vitro ADME, Streptomyces lividans; conditions: 0.12 mg/ml 10001 in culture
Procedure: Herbicides and their metabolites are measured by HPLC as described by Romesser et al., BBRC 140: 650-659 (1986), herein incorporated by reference, except that 0.1% H3 PO4 is used in both solvents. Chromatographic identity and quantitation of the herbicides and their resulting metabolites is determined by comparing them chromatographically with authentic standard compounds. Identity of the resulting metabolites is also confirmed by UV spectroscopy.
Separate cultures (50 ml) inoculated with S. lividans C37, S. lividans transformed with pCAO400 or S. lividans transformed with pCAO401 in sporulation broth containing 0.12 mg/ml of 10001 were grown with shaking at 30° C. Aliquots (1.5 ml) of each culture were removed at 24, 32, 48 and 56 hours after inoculation and the supernatant of each aliquot was analyzed by HPLC for its concentration of 10001 and its metabolites 10002 or 10003.

[1] = system: Tomato seedlings (Lysopersicon esculentum cv. Pixie); assay: Tomato transplants in sulfonylurea-treated soil after dipping in water, YEME or S. lividans culture (Example 13); type: in vivo; conditions: for Mean value of visual ratings / Visual Injury Ratings of individual transplanted tomatoes: 19 DAT
Procedure: A 2 liter culture of S. lividans pCAO200SU1-FeS-B#9 was grown in YEME medium at 30° C. until the culture was in […] log phase of growth and the absorbance in a spectrophotometer at a wavelength of 600 nm was between about 1.0 and 1.3. Tomato seedlings (Lysopersicon esculentum cv. "Pixie") were seeded directly into soiless media, Oasis Wedges® (Smithers-Oasis, Kent, Ohio), fertilized with 500 ppm Peters'® fertilizer (20:19:18); and 300 ppm of iron was added weekly. As the tomato plants develop, roots ramify through the Oasis Wedges®. The tomato plants were transplanted to pots when they were 4 inches tail as follows.
Five inch standard round pots (without holes) were filled with Sassafras sandy loam (pH 6.7, 0.8% OM) and an oasis cube. The contents of the each pot was sprayed, prior to transplanting the tomato plants, with either 10001, in 25% dry flowable composition (25 DF) or 10010, 75 DF at rates of 16, 32, 64, 125 or 250 grams of active ingredient per hectare (g ai/ha). The Oasis cube was then removed and replaced by another containing a transplant tomato plant dipped in either water (treatment A), YEME medium (treatment B)-or the culture of S. lividans pCAO200SU1-FeS-B#9 described above (treatment C). Six transplant tomato plants received each of the three treatments, and five transplant tomato plants (to serve as controls) received no treatment. The resulting tomato plants were grown in a greenhouse for 19 days and watered twice daily, after which they were evaluated for visual injury (100=complete kill, other numbers=percentage of injury relative to controls [subjectively determined], 0=no injury) with respect to the water dipped, no-herbicide control treatments. The plants were left in the greenhouse for one more week after which the fresh weights of the shoots of the plants were determined. The roots of the plants which received these treatments and controls were examined too.

[2] = system: transformed tobacco seedlings; assay: Tissue culture growth of transformed tobacco seed on 50 nM 10015 (Examples 22-23); type: in vivo, Nicotiana tabacum
Procedure: Growth medium was prepared from Murishige minimal organics medium (Gibco Laboratories, Grand Island, N.Y.), 8 g/l agar, supplemented with T vitamins (50 ppb biotin, 0.5 ppm pyridoxine HCl, 0.5 ppm thiamine HCl, 5 ppm nicotinic acid, 0.5 ppm folic acid, 2 ppm glycine, 100 ppm myo-inositol), sterilized and placed into sterile PlantCon plant tissue culture containers (Flow Laboratories, McLean, Va.). Tobacco seed obtained from the self-pollination of the primary transformants was surface sterilized by a treatment of not more than 30 min in 20% chlorine bleach, 0.1% sodium dodecyl sulfate, followed by rinsing in distilled water, and placed on the surface of the medium in the sterile containers. Following this treatment, the seed was allowed to germinate and grow under illumination (100 microeinsteins·m^-2 ·s^-1), at 22° C.
Because of the increased phytotoxicity of 10014 over that of 10015, plants grown in media containing 10015 should be growth inhibited if they contain an active cytochrome P450SU1. To test this, seeds of tobacco were grown in tissue culture media supplemented with 50 nM compound 10015, and the results are shown in Table 20.
This technique was used to analyze the progeny of plants transformed with both the gene for SU1 and FeS-B, and the results are shown in Table 21.
Plants transformed With the plasmids pSuFe31 and pSuFe41 were selected for high expression of P450SU1 and FeS-B mRNA by primer extension analysis as described in Example 19, and self pollinated to produce seed. This seed was germinated on medium containing 50 nM of compound 10015 and analyzed for sensitivity to this compound (indicating the presence of an active cytochrome P450SU1 enzyme) as in Example 22.

[3] = 16 g ai/ha, Treatment A (water)
[4] = 16 g ai/ha, Treatment A (water), scale 0-100
[5] = 16 g ai/ha, Treatment B (YEME), scale 0-100
[6] = 16 g ai/ha, Treatment C (pCAO200SU1-FeS-B#9)
[7] = 16 g ai/ha, Treatment C (pCAO200SU1-FeS-B#9), scale 0-100
[8] = 32 g ai/ha, Treatment A (water)
[9] = 32 g ai/ha, Treatment A (water), scale 0-100
[10] = 32 g ai/ha, Treatment B (YEME), scale 0-100
[11] = 32 g ai/ha, Treatment C (pCAO200SU1-FeS-B#9)
[12] = 32 g ai/ha, Treatment C (pCAO200SU1-FeS-B#9), scale 0-100
[13] = 64 g ai/ha, Treatment A (water), scale 0-100
[14] = 64 g ai/ha, Treatment B (YEME), scale 0-100
[15] = 64 g ai/ha, Treatment C (pCAO200SU1-FeS-B#9), scale 0-100
[16] = 125 g ai/ha, Treatment A (water), scale 0-100
[17] = 125 g ai/ha, Treatment B (YEME), scale 0-100
[18] = 125 g ai/ha, Treatment C (pCAO200SU1-FeS-B#9), scale 0-100
[19] = 250 g ai/ha, Treatment A (water), scale 0-100, 100 = complete kill
[20] = 250 g ai/ha, Treatment B (YEME), scale 0-100
[21] = 250 g ai/ha, Treatment C (pCAO200SU1-FeS-B#9), scale 0-100

CCOC(=O)c1ccccc1S(=O)(=O)NC(=O)Nc1nc(Cl)cc(OC)n1 [compound 10001, N-[(4-chloro-6-methoxy-pyrimidin-2-yl)aminocarbonyl]-2-ethoxycarbonylbenzenesulfonamide]
concentration in supernatant (S. lividans C37; 0 h): 325 µM | concentration in supernatant (S. lividans C37; 24 h): 320 µM | concentration in supernatant (S. lividans C37; 32 h): 295 µM | concentration in supernatant (S. lividans C37; 48 h): 281 µM | concentration in supernatant (S. lividans C37; 56 h): 280 µM | Mean Shoot Fresh Weights [1, 3]: 3.25 grams | Mean value of visual ratings [1, 4]: 43.3 | Mean Shoot Fresh Weights ([1]; 16 g ai/ha, Treatment B (YEME)): 2.35 grams | Mean value of visual ratings [1, 5]: 51.7 | Mean Shoot Fresh Weights [1, 6]: 3.1 grams | Mean value of visual ratings [1, 7]: 40 | Mean Shoot Fresh Weights [1, 8]: 2.49 grams | Mean value of visual ratings [1, 9]: 68.3 | Mean Shoot Fresh Weights ([1]; 32 g ai/ha, Treatment B (YEME)): 1.76 grams | Mean value of visual ratings [1, 10]: 58.3 | Mean Shoot Fresh Weights [1, 11]: 3.37 grams | Mean value of visual ratings [1, 12]: 50 | visual injury, treatment C versus treatments A or B ([1]; 64, 125, and 250 g ai/ha): significantly less injured | Mean Shoot Fresh Weights ([1]; 64 g ai/ha, Treatment A (water)): 1.37 grams | Mean value of visual ratings [1, 13]: 66.7 | Mean Shoot Fresh Weights ([1]; 64 g ai/ha, Treatment B (YEME)): 1.40 grams | Mean value of visual ratings [1, 14]: 63.3 | Mean Shoot Fresh Weights ([1]; 64 g ai/ha, Treatment C (pCAO200SU1-FeS-B#9)): 2.94 grams | Mean value of visual ratings [1, 15]: 43.3 | Shoot weight, dipped in pCAO200SU1-FeS-B#9 culture versus water or YEME ([1]; 125 g ai/ha): 2-3 times | Mean Shoot Fresh Weights ([1]; 125 g ai/ha, Treatment A (water)): 0.80 grams | Mean value of visual ratings [1, 16]: 90 | Mean Shoot Fresh Weights ([1]; 125 g ai/ha, Treatment B (YEME)): 1.06 grams | Mean value of visual ratings [1, 17]: 70 | Mean Shoot Fresh Weights ([1]; 125 g ai/ha, Treatment C (pCAO200SU1-FeS-B#9)): 2.72 grams | Mean value of visual ratings [1, 18]: 50 | Shoot weight, dipped in pCAO200SU1-FeS-B#9 culture versus water or YEME ([1]; 250 g ai/ha): 3-4 times greater | Mean Shoot Fresh Weights ([1]; 250 g ai/ha, Treatment A (water)): 0.63 grams | Mean value of visual ratings [1, 19]: 91.7 | Mean Shoot Fresh Weights ([1]; 250 g ai/ha, Treatment B (YEME)): 0.40 grams | Mean value of visual ratings [1, 20]: 81.7 | Mean Shoot Fresh Weights ([1]; 250 g ai/ha, Treatment C (pCAO200SU1-FeS-B#9)): 2.41 grams | Mean value of visual ratings [1, 21]: 50.0

COc1cc(Cl)nc(NC(=O)NS(=O)(=O)c2ccccc2C(=O)O)n1 [compound 10003, N-[(4-chloro-6-methoxy-pyrimidin-2-yol)aminocarbonyl]-2-carboxybenzenesulfonamide]
concentration in supernatant (S. lividans C37; 0 h): 0 µM | concentration in supernatant (S. lividans C37; 24 h): 0 µM | concentration in supernatant (S. lividans C37; 32 h): 0 µM | concentration in supernatant (S. lividans C37; 48 h): 3 µM | concentration in supernatant (S. lividans C37; 56 h): 3 µM

COC(=O)c1ccccc1S(=O)(=O)NC(=O)Nc1nc(C)cc(C)n1 [compound 10010, N-[(4,6-dimethylpyrimidin-2-yl)aminocarbonyl]-2-methoxycarbonylbenzenesulfonamide]
Mean Shoot Fresh Weights [1, 3]: 1.28 grams | Mean value of visual ratings [1, 4]: 70.0 | Mean Shoot Fresh Weights ([1]; 16 g ai/ha, Treatment B (YEME)): 1.58 grams | Mean value of visual ratings [1, 5]: 63.3 | Mean Shoot Fresh Weights [1, 6]: 2.10 grams | Mean value of visual ratings [1, 7]: 60 | Mean Shoot Fresh Weights [1, 8]: 0.65 grams | Mean value of visual ratings [1, 9]: 93.3 | Visual Injury Ratings of individual transplanted tomatoes [1, 9]: 100,100,100 | Mean Shoot Fresh Weights ([1]; 32 g ai/ha, Treatment B (YEME)): 1.60 grams | Mean value of visual ratings [1, 10]: 66.7 | Mean Shoot Fresh Weights [1, 11]: 1.79 grams | Mean value of visual ratings [1, 12]: 56.7 | Mean value of visual ratings [1, 13]: 90.0 | Visual Injury Ratings of individual transplanted tomatoes [1, 13]: 80,100,100 | Mean value of visual ratings [1, 14]: 83.3 | Mean value of visual ratings [1, 15]: 86.7 | Visual Injury Ratings of individual transplanted tomatoes [1, 15]: 60,100,100 | Mean value of visual ratings [1, 16]: 91.7 | Visual Injury Ratings of individual transplanted tomatoes [1, 16]: 90,100,100 | Mean value of visual ratings [1, 17]: 83.3 | Mean value of visual ratings [1, 18]: 76.7 | Visual Injury Ratings of individual transplanted tomatoes ([1]; 250 g ai/ha, Treatment A (water), scale 0-100): 90,100,100 | Mean value of visual ratings [1, 19]: 95.0 | Mean value of visual ratings [1, 20]: 86.7 | Mean value of visual ratings [1, 21]: 85 | visual injury across treatments A, B, C ([1]; all rates): injured to similar extents regardless of the treatment they received

COc1cc(OC)nc(NC(=O)NS(=O)(=O)c2cccc3c2S(=O)(=O)N(C(C)C)C3)n1 [compound 10015]
Compound 10015 Sensitive (plants demonstrating result/total plants) ([2]; AGS502 (Control)): 0/9 | Number 10015 Resistant ([2]; AGS502 (Control)): 32 | Number 10015 Sensitive ([2]; AGS502 (Control)): 0 | Ratio Sensitive/Resistant ([2]; AGS502 (Control)): 0 | Compound 10015 Sensitive (plants demonstrating result/total plants) ([2]; SuFe21.2): 7/9 | Compound 10015 Sensitive (plants demonstrating result/total plants) ([2]; SuFe21.5): 8/9 | Compound 10015 Sensitive (plants demonstrating result/total plants) ([2]; SuFe21.6): 7/9 | Compound 10015 Sensitive (plants demonstrating result/total plants) ([2]; SuFe21.7): 5/7 | Compound 10015 Sensitive (plants demonstrating result/total plants) ([2]; SuFe21.8): 10/10 | Number 10015 Resistant ([2]; SuFe31.13): 4 | Number 10015 Sensitive ([2]; SuFe31.13): 12 | Ratio Sensitive/Resistant ([2]; SuFe31.13): 3.0 | Number 10015 Resistant ([2]; SuFe31.28): 5 | Number 10015 Sensitive ([2]; SuFe31.28): 10 | Ratio Sensitive/Resistant ([2]; SuFe31.28): 2.0 | Number 10015 Resistant ([2]; SuFe41.34): 32 | Number 10015 Sensitive ([2]; SuFe41.34): 0 | Ratio Sensitive/Resistant ([2]; SuFe41.34): 0 | Number 10015 Resistant ([2]; SuFe41.37): 8 | Number 10015 Sensitive ([2]; SuFe41.37): 24 | Ratio Sensitive/Resistant ([2]; SuFe41.37): 3.0 | Number 10015 Resistant ([2]; SuFe41.56): 32 | Number 10015 Sensitive ([2]; SuFe41.56): 0 | Ratio Sensitive/Resistant ([2]; SuFe41.56): 0 | Number 10015 Resistant ([2]; SuFe41.60): 15 | Number 10015 Sensitive ([2]; SuFe41.60): 0 | Ratio Sensitive/Resistant ([2]; SuFe41.60): 0 | Compound 10015 Sensitive (plants demonstrating result/total plants) ([2]; SuFell.1): 2/9 | Compound 10015 Sensitive (plants demonstrating result/total plants) ([2]; SuFell.11): 0/9 | Compound 10015 Sensitive (plants demonstrating result/total plants) ([2]; SuFell.3): 0/8 | Compound 10015 Sensitive (plants demonstrating result/total plants) ([2]; SuFell.4): 0/10 | Compound 10015 Sensitive (plants demonstrating result/total plants) ([2]; SuFell.7): 0/9 | Compound 10015 Sensitive (plants demonstrating result/total plants) ([2]; SuFell.8): 1/10
